ChEMBL document CHEMBL1126334, “Thromboxane receptor antagonist BMS-180291: A new pre-clinical lead” (Bioorg Med Chem Lett, 1992)
Calls of active or inactive are those of the source. The calls are words filed in the database; no cut-off is given here.

Legend:
Homo sapiens = species: Homo sapiens; experiment: Compound was tested at 1 mM for the inhibition of ADP-induced (20 uM) platelet aggregation in human platelet-rich plasma; NI=No inhibition; assay type: functional, organism-based
Bos taurus = species: Bos taurus; experiment: Compound was tested at 1 nM for the inhibition of […] in bovine seminal vesicle microsomes; NI=No inhibition; assay type: functional
[1] = molecular target: T1, Thromboxane-A synthase (Homo sapiens) (UniProt P24557); experiment: Compound was tested for activity against Thromboxane A2 synthase in human PRP; NI=No inhibition
T1 sequence (whole entry): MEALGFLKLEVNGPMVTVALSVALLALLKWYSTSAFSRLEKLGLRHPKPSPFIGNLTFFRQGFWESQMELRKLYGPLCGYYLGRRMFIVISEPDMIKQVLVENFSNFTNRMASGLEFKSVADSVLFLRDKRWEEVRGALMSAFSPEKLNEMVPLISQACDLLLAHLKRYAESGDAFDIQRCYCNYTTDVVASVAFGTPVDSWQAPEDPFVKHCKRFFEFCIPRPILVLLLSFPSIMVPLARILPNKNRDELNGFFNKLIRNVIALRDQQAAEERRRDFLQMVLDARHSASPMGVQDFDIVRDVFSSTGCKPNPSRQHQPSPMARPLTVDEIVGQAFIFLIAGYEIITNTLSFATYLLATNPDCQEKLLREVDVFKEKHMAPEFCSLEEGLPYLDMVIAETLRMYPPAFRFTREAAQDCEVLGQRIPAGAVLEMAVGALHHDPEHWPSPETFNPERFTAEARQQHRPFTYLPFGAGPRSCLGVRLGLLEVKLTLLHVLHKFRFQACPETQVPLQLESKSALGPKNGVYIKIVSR

[2] = Oral bioavailability in African green monkeys; 20-25; assay type: ADME, organism-based; conditions: chlorocebus aethiops, in vivo, read-out: Bioavailabiility
Mus musculus = experiment: Time duration taken by the compound (0.2 mg/kg, po) to provide extended protection from U46,619 (2 mg/kg, iv) induced death; assay type: functional
Rattus norvegicus = species: Rattus norvegicus; experiment: Compound was tested for the inhibition of U46,619-induced contractions in rat aortas; assay type: functional; conditions: Aorta
Monkey = experiment: Oral dose of compound required to inhibit the U46,619-induced platelet aggregation in ex vivo African green monkeys; assay type: functional, Cercopithecidae

## CCCCCNC(=O)c1coc([C@H]2[C@@H](Cc3ccccc3CCC(=O)O)[C@@H]3CC[C@H]2O3)n1 [IFETROBAN]
Homo sapiens
  Activity: inactive
Bos taurus
  Activity: inactive
[1]
  Activity: inactive
[2]
  bioavailability: 20%
Mus musculus
  T50: 14 h
Rattus norvegicus
  Kb: 0.56 nM
Monkey
  Dose: 3 mg/kg
